Literature values in US11013844B2, “Treatment device for plasma virus inactivation” (City of Hope, priority 2014, dated 2021).

Settings: within 6 days

CN(C)c1ccc2nc3ccc(N(C)C)cc3[s+]c2c1.[Cl-] [methylene blue, 3,7-bis(dimethylamino)phenothiazin-5-ium chloride]
methylene blue drained through urine: 74%
part drained through urine in the original form (the other is white methylene blue): 22%
